We go through 19 molecules from PMC1892040 (PLoS Medicine, 2007).

Series [1] concerns the target T1, S. mansoni TGR (Schistosoma mansoni, UniProt Q962Y6).
T1 sequence (Q962Y6 1-598): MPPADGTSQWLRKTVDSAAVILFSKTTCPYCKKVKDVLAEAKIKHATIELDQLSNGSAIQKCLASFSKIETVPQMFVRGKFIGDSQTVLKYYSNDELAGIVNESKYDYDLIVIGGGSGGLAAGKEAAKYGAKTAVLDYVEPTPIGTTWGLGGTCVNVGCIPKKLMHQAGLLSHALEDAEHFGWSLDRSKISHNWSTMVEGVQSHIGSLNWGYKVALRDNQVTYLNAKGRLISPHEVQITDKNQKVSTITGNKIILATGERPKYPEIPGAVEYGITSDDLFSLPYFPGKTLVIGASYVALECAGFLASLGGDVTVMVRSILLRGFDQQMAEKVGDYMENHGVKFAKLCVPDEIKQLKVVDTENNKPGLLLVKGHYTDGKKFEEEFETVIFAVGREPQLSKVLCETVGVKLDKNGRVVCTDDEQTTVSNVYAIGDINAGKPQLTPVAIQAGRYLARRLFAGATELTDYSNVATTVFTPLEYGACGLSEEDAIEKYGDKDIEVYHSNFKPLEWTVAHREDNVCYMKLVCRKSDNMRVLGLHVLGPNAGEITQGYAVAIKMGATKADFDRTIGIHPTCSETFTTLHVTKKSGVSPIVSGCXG
The series is described as follows: Kinetic analysis of recombinant S. mansoni TGR with substrates. The settings on record: for Specific activity, S. mansoni TGR: NADPH + substrate; for Specific activity of recombinant TGR with substrate: Trx coupled to insulin reduction, HED in Grx assay. How it is done:
Kinetic parameters were determined using Lineweaver–Burk plots using KaleidaGraph 4 (Synergy Software, http://www.synergy.com) least squares best fit of data and varying concentrations of one substrate while maintaining the concentration of other substrates. […] All assays were done in triplicate.

Series [2] deals with T1, S. mansoni TGR.
Description: (§1) Assays were performed at 25 °C in 0.1 M potassium phosphate (pH 7.4), 10 mM EDTA using 100 μM NADPH unless otherwise stated.
(§2) Initial inhibitor screens were conducted in 200 μl volumes in 96 well plates with 50 μM inhibitor, 100 μM NADPH, and 5 nM TGR in 0.1 M potassium phosphate (pH 7.4), 10 mM EDTA with a preincubation step of 15 min. […] All assays were done in triplicate.
The target of series [3] is T1, S. mansoni TGR. It counts as biochemical. The arrangement: The entire TGR ORF plus the SECIS element was subcloned into pET-24a; made in house; host or cells: Escherichia coli BL21(DE3) with pSUABC. To be noted: read-out: IC50 S. mansoni TGR, DTNB (TrxR activity).
Description: as §1, §2
The target of series [4] is T2, Human TrxR (Homo sapiens, UniProt Q16881).
T2 sequence (Q16881 1-499 isoform Q16881-5): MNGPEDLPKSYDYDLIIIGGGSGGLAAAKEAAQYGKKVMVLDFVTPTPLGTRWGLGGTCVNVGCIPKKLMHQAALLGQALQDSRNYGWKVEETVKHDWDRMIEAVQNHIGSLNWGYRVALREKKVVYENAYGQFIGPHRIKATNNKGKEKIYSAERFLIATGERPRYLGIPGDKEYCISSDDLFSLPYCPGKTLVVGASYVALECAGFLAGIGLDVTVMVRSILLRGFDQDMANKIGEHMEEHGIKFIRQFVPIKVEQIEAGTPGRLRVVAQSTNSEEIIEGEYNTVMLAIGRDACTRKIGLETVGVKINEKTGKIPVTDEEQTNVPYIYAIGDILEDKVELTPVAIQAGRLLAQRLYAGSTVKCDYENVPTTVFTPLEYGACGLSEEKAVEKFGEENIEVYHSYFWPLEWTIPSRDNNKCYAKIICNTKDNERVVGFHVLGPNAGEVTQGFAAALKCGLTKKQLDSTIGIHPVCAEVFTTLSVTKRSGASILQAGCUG
To be noted: read-out: IC50 Human TrxR, DTNB/Trx; cited from earlier work.

In series [5] the target is T1, S. mansoni TGR. The series is described as follows: IC50, Grx activity of TGR (HED assay), 15 min preincubation. Format: biochemical. The arrangement: The entire TGR ORF plus the SECIS element was subcloned into pET-24a; made in house; host or cells: Escherichia coli BL21(DE3) with pSUABC. To be noted: 8 mM HED plus 1 mM GSH, 15 min preincubation with 100 μM NADPH.
Description: as §1, §2
The target in series [6] is T1, S. mansoni TGR. It counts as biochemical. The arrangement: The entire TGR ORF plus the SECIS element was subcloned into pET-24a; made in house; host or cells: Escherichia coli BL21(DE3) with pSUABC. The settings on record: read-out: IC50 S. mansoni TGR, GSSG (GR activity).
Description: as §1, §2
Series [7] deals with T3, Human GR (Homo sapiens, UniProt P00390).
T3 sequence (P00390 44-522): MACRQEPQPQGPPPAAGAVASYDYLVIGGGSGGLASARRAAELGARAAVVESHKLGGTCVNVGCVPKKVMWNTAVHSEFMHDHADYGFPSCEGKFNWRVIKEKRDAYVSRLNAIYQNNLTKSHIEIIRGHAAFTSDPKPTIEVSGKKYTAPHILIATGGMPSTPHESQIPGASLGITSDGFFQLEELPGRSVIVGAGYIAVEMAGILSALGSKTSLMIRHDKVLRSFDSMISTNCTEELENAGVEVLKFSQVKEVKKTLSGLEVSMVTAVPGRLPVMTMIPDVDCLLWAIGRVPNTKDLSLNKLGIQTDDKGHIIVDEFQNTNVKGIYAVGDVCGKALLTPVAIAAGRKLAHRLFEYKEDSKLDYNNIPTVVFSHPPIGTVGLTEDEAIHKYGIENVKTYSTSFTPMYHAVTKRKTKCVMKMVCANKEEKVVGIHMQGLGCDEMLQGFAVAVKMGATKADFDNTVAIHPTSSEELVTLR
To be noted: read-out: IC50 Human GR, GSSG; cited from earlier work.

Series [8] relates to Human TGR. To be noted: cited from earlier work; for Specific activity, Human TGR: NADPH + substrate; for Km: read-out: Apparent Km, Human TGR.
Series [9] deals with Human TrxR1. To be noted: cited from earlier work; for Specific activity, Human TrxR1: NADPH + substrate, ND, no activity detected; for Km: read-out: Apparent Km, Human TrxR1.
Series [10] concerns the target T1, S. mansoni TGR. The series is described as follows: biochemical. To be noted: read-out: Activity of Enzyme (% of Uninhibited Enzyme).
Description: as §1, §2
Series [11] has as its system schistosomula. Kind of series: Schistosomula survival after RNAi and/or drug treatment. It counts as cell-based, Schistosoma mansoni. The settings on record: 2 μM praziquantel.
Description: Cercariae were mechanically transformed to schistosomula by vortexing, and bodies were separated from tails by Percoll gradient centrifugation as described [13]. Immediately after transformation, TGR dsRNA or irrelevant dsRNA (each at 54 μg/ml) was added to ~500 schistosomula in 50 μl water followed by incubation at 37 °C for 30 min. After addition of 250 μl of RPMI-1640 medium, 300 U/ml penicillin, and 175 μg/ml streptomycin, parasites were incubated at 37 °C in 5% CO2 atmosphere for 4 d. Reduced O2 tension was obtained by filtering media and purging with 95% N2, 5% CO2 for 20 min before use. Parasites were cultured during the course of the experiment in the appropriate gaseous mix at 37 °C in a sealed modular incubator chamber (Billups-Rothenberg, http://www.brincubator.com) flushed with the same gaseous mix. On day 2 of the experiment, 50 μl of fresh media was added. Schistosomula were assessed daily for viability by microscopy. For each time point at least 1,500 parasites were scored as alive or dead in each experiment (three replicates of 500 each), and each experiment was repeated three times.
(B) Parasites were cultured in the presence of double-stranded TGR RNA (dashed lines) or of double-stranded irrelevant RNA (solid lines) in 20% O2 (♦) or 0% O2 (). […] (C) Combination of RNAi and drug treatments. Solid lines are irrelevant dsRNA treatments and dashed lines are dsTGR treatments; no additions (♦), 2 μM praziquantel () and 2 μM AF (▴). […] In each experiment for each time point at least 1,500 parasites were scored as alive or dead (three replicates of 500 parasites). The error bars represent the standard deviations of three independent experiments.
The mark [12] stands for this setting: substrate of TGR (20 nM), 25 °C, pH 7.4, 100 μM NADPH.
The mark [13] stands for this setting: substrate of TGR (20 nM), 25 °C, pH 7.4, 100 μM NADPH, ± SD.
The mark [14] stands for this setting: 3 mM DTNB, 15 min preincubation with 100 μM NADPH.
The mark [15] stands for this setting: 100 μM GSSG, 15 min preincubation with 100 μM NADPH.
[16] abbreviates: read-out: Apparent Km, S. mansoni TGR.

Where two headings read alike, the source gives them in different places.

As usually defined, the kcat is the maximal rate divided by the concentration of active sites. In general, Km refers to the substrate concentration at which the rate is half of its maximum. For orientation: Vmax means the top rate of the reaction or transport when substrate is in excess. For the molecule `O=C(O)CCCC[C@@H]1CCSS1` (racemic) [Lipoic acid], in series [1] (setting [12]), the kcat came out at 1.7 s⁻¹. Moreover, in series [1] (setting [13]), the Km came to 2610 µM and the Vmax was found to be 2.03 ± 0.135 µM/min.
Consider `OC[C@H]1O[C@H]([S-])[C@H](O)[C@@H](O)[C@@H]1O.[Au+]` [Aurothioglucose], for which, in series [2], the “Activity of Enzyme (% of Uninhibited Enzyme)” value stood at 0%. The IC50 in series [3] was 70 nM; in [4], 65 nM; in series [5], 400 nM; in [6], 3000 nM; in series [7], more than 100000 nM.
Molecule `O=C(O)CC([S-])C(=O)O.[Au+]` (stereo not drawn) [Aurothiomalate] showed an activity in series [2] of 0%. In addition, the IC50 is 90 nM in series [3] (setting [14]), 280 nM in series [4], 50 nM in series [5] and 50 nM in series [6] (setting [15]).
Turning to `CN(C)CCC(=O)c1ccccc1` [Compound 3-DAP], the IC50 is 500 nM in [3] (setting [14]) and 7000 nM in series [6] (setting [15]).
As for `OO` [Compound H2O2, H2O2], the kcat in [1] (setting [12]) is 9.4 s⁻¹. Besides, in series [1] (setting [13]), the Km was 68000 µM and the Vmax was 11.3 ± 0.46 µM/min.
In the case of `O=C1C=CC(=O)c2ccccc21` [Compound M5], the activity in [2] was 37%.
Consider `O=C1OC(C(O)CO)C(=O)C1=O` (stereo not drawn) [DHAA, dehydroascorbic acid], for which, in series [1] (setting [12]), the kcat is less than 0.25 s⁻¹. Besides, in series [1] (setting [13]), the Vmax is less than 0.3 µM/min.
For the molecule `O=C(O)c1cc(SSc2ccc([N+](=O)[O-])c(C(=O)O)c2)ccc1[N+](=O)[O-]` [DTNB, 5,5′-dithiobis(2-nitrobenzoic acid)], in series [1], the “Specific activity, S. mansoni TGR” value came out at 10.2 µmol/min/mg and the “Specific activity of recombinant TGR with substrate” value (from here on “Specific activity … with substrate”) came out at 10.2 U/mg. For the same molecule, the kcat in series [1] (setting [12]) is 16 s⁻¹. In addition, in series [1] (setting [13]), the Km is 114 ± 9 µM and the Vmax came out at 19.2 ± 1.6 µM/min. For the same molecule, in series [8], the “Specific activity, Human TGR” value was 3.1 µmol/min/mg; the “Apparent kcat, Human TGR” value is 6.5 s⁻¹; the Km was 14.7 µM. In series [9], the “Specific activity, Human TrxR1” value is 25 µmol/min/mg; the “Apparent kcat, Human TrxR1” value is 86 s⁻¹; the Km was 212 µM.
For `OCCSSCCO` [HED, β-hydroxyethyl disulfide], in series [1], the “Apparent kcat, S. mansoni TGR” value came out at 17.8 s⁻¹; the “Specific activity, S. mansoni TGR” value was determined as 9.9 µmol/min/mg; the “Specific activity … with substrate” value is listed as 9.9 U/mg. Further, the Km in [1] (setting [16]) is 1870 µM. Also, the catalytic constant (kcat) in series [1] (setting [12]) is 17.8 s⁻¹. Moreover, in [1] (setting [13]), the Km was 1870 µM and the Vmax stood at 21.4 ± 0.33 µM/min. In addition, in series [8], the “Specific activity, Human TGR” value was 1.9 µmol/min/mg; the “Apparent kcat, Human TGR” value was 1.2 s⁻¹; the Km was 45.2 µM.
With `CC1=CC(=O)c2ccccc2C1=O` [Menadione], in series [10], the activity at 50 µM is 18%.
Turning to `CN(C)c1ccc2nc3ccc(=[N+](C)C)cc-3sc2c1` [Methylene blue], in series [10], the activity at 50 µM amounted to 100%.
Take `O=[Se]([O-])[O-].[Na+].[Na+]` [Na2SeO3, sodium selenite]: in series [1] (setting [12]), the kcat worked out at 2.1 s⁻¹. Also, in series [1] (setting [13]), the Km was 66.7 ± 6.9 µM and the Vmax came to 2.54 ± 0.046 µM/min.
With `O=C1C=CC(=O)c2c(O)ccc(O)c21` [Naphthazarin], the IC50 in [4] is 650 nM.
Take `CC1=CC(=O)c2c(O)cccc2C1=O` [Plumbagin]: the activity at 50 µM in series [10] was determined as 15%.
For `O=C(C1CCCCC1)N1CC(=O)N2CCc3ccccc3C2C1` (stereo not drawn) [Praziquantel], the “Inhibition of TGR, in words” value in series [2] is recorded as “no inhibitory activity”. In addition, the “Effect on schistosomula survival alone or in combination with RNAi” value in series [11] was “no effect”. In [10], the activity at 50 µM was 100%.
`Cc1cc2nc3cc(C)c(N)cc3[n+](-c3ccccc3)c2cc1N` [Safranin] returned an activity in series [2] of 75%.
`COC1=C(OC)C(=O)C(C/C=C(\C)CC/C=C(\C)CC/C=C(\C)CC/C=C(\C)CC/C=C(\C)CC/C=C(\C)CC/C=C(\C)CC/C=C(\C)CC/C=C(\C)CCC=C(C)C)=C(C)C1=O` [Ubiquinone]: in series [1] (setting [12]), the kcat was less than 0.25 s⁻¹. Also, the Vmax in series [1] (setting [13]) was less than 0.3 µM/min.
With `CC(C)(C)OO` [t-Butyl-OOH, tert-butyl hydroperoxide], the kcat in series [1] (setting [12]) stood at 10.7 s⁻¹. Besides, in series [1] (setting [13]), the Km turned out to be 48600 µM and the Vmax came out at 12.8 ± 0.33 µM/min.

B1: Trx: 12 kDa protein thioredoxin, substrate of TrxR and TGR enzymes (protein, UniProt P10599 2-105, looked up)
Thioredoxin: VKQIESKTAFQEALDAAGDKLVVVDFSATWCGPCKMIKPFFHSLSEKYSNVIFLEVDVDDCQDVASECEVKCMPTFQFFKKGQKVGEFSGANKEKLEATINELV
With B1, in [1], the “Apparent kcat, S. mansoni TGR” value came to 30 s⁻¹; the “Specific activity, S. mansoni TGR” value amounted to 2.2 µmol/min/mg; the “Specific activity … with substrate” value is listed as 2.2 U/mg. Besides, the Km in series [1] (setting [16]) turned out to be 6.37 µM. In addition, in [8], the “Specific activity, Human TGR” value was 4.2 µmol/min/mg; the “Apparent kcat, Human TGR” value was 5.7 s⁻¹; the Km is 3 µM. Moreover, in [9], the “Specific activity, Human TrxR1” value is 5.9 µmol/min/mg; the “Apparent kcat, Human TrxR1” value was 9.8 s⁻¹; the Km was 4.73 µM.
